Laboratory results published in PubChem BioAssay AID248 (DTP/NCI, 2004).
Inconclusive results and toxic doses are left out. Rule as the data show it: active = T/C of 150% or more; inactive = T/C below 125%.

Test system: L1210 leukemia ip in BDF1 mice, survival T/C
Test: NCI In Vivo Anticancer Drug Screen. Data for tumor model L1210 Leukemia (intraperitoneal) in B6D2F1 (BDF1) mice
Details: endpoint: mean survival time, higher = longer survival
How it was run: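 Each compound was tested against a transplantable tumor grown in mice. The endpoint was survival, with treated animals benchmarked against vehicle controls as a simple ratio.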

[1] = dose: 200.0 mg/kg/injection, schedule: Q01DX009 (ip), vehicle: saline
[2] = dose: 400.0 mg/kg/injection, schedule: Q01DX009 (ip), vehicle: saline
[3] = dose: 100.0 mg/kg/injection, schedule: Q01DX009 (ip), vehicle: Klucel (hydroxypropylcellulose) (HPC)
[4] = dose: 100.0 mg/kg/injection, schedule: Q04DX003 (ip), vehicle: saline with Tween-80
[5] = dose: 200.0 mg/kg/injection, schedule: Q04DX003 (ip), vehicle: saline with Tween-80
[6] = dose: 400.0 mg/kg/injection, schedule: Q04DX003 (ip), vehicle: saline with Tween-80
[7] = dose: 50.0 mg/kg/injection, schedule: Q01DX001 (ip), vehicle: saline
[8] = dose: 100.0 mg/kg/injection, schedule: Q01DX001 (ip), vehicle: saline
[9] = dose: 200.0 mg/kg/injection, schedule: Q01DX001 (ip), vehicle: saline
[10] = dose: 400.0 mg/kg/injection, schedule: Q01DX001 (ip), vehicle: saline
[11] = dose: 100.0 mg/kg/injection, schedule: Q04DX003 (ip), vehicle: saline
[12] = dose: 200.0 mg/kg/injection, schedule: Q04DX003 (ip), vehicle: saline
[13] = dose: 400.0 mg/kg/injection, schedule: Q04DX003 (ip), vehicle: saline
[14] = dose: 100.0 mg/kg/injection, schedule: Q04DX003 (ip), vehicle: other
[15] = dose: 200.0 mg/kg/injection, schedule: Q01DX009 (ip), vehicle: Klucel (hydroxypropylcellulose) (HPC)
[16] = dose: 200.0 mg/kg/injection, schedule: Q04DX003 (ip), vehicle: other
[17] = dose: 400.0 mg/kg/injection, schedule: Q01DX009 (ip), vehicle: Klucel (hydroxypropylcellulose) (HPC)
[18] = dose: 25.0 mg/kg/injection, schedule: Q01DX001 (ip), vehicle: Klucel (hydroxypropylcellulose) (HPC)
[19] = dose: 100.0 mg/kg/injection, schedule: Q01DX001 (ip), vehicle: Klucel (hydroxypropylcellulose) (HPC)
[20] = dose: 100.0 mg/kg/injection, schedule: Q01DX009 (ip), vehicle: saline with Tween-80
[21] = dose: 200.0 mg/kg/injection, schedule: Q01DX009 (ip), vehicle: saline with Tween-80
[22] = dose: 400.0 mg/kg/injection, schedule: Q01DX009 (ip), vehicle: saline with Tween-80
[23] = dose: 100.0 mg/kg/injection, schedule: Q01DX001 (ip), vehicle: saline with Tween-80
[24] = dose: 200.0 mg/kg/injection, schedule: Q01DX001 (ip), vehicle: saline with Tween-80
[25] = dose: 400.0 mg/kg/injection, schedule: Q01DX001 (ip), vehicle: saline with Tween-80

Measured: T/C

CCOC(=O)C(C)NC(=O)C(CSC(c1ccccc1)(c1ccccc1)c1ccccc1)NC(c1ccccc1)(c1ccccc1)c1ccccc1 (centres undefined)
inactive: dose: 25.0 mg/kg/injection, schedule: Q01DX009 (ip), vehicle: saline 98 % of control | dose: 50.0 mg/kg/injection, schedule: Q01DX009 (ip), vehicle: saline 103 % of control | dose: 100.0 mg/kg/injection, schedule: Q01DX009 (ip), vehicle: saline 92 % of control | [1] 93 % of control | [2] 98 % of control

COC(=O)NC1CC(O)C(CO)C1 (centres undefined)
inactive: dose: 50.0 mg/kg/injection, schedule: Q01DX009 (ip), vehicle: Klucel (hydroxypropylcellulose) (HPC) 94 % of control | [3] 97 % of control

O=C1NOCC1NCc1c(O)ccc2ccccc12 (centres undefined)
inactive: [4] 87 % of control | [5] 100 % of control | [6] 97 % of control

CN(C)Cc1cccc(C(F)(F)F)c1C(O)c1ccccc1 (centres undefined)
inactive: [7] 100 % of control | [8] 94 % of control | [9] 103 % of control | [10] 100 % of control

COc1ccc(CN(CCO)S(C)(=O)=O)cc1
inactive: [11] 91 % of control | [1] 96 % of control | [12] 96 % of control | [2] 88 % of control | [13] 100 % of control

Cc1cc2cc(C)c3cccc(C)c3c2c2c(C)cccc12
inactive: [3] 102 % of control | [14] 95 % of control | [15] 106 % of control | [16] 97 % of control | [17] 96 % of control | dose: 400.0 mg/kg/injection, schedule: Q04DX003 (ip), vehicle: other 90 % of control

N#C/C(=C\c1ccc(Cl)cc1)c1ccccc1
inactive: dose: 100.0 mg/kg/injection, schedule: Q04DX003 (ip), vehicle: gum acacia 100 % of control | dose: 200.0 mg/kg/injection, schedule: Q04DX003 (ip), vehicle: gum acacia 102 % of control | dose: 400.0 mg/kg/injection, schedule: Q04DX003 (ip), vehicle: gum acacia 109 % of control

CC1(C)OCC2OC(N)C(O)C2O1 (centres undefined)
inactive: [11] 100 % of control | [12] 89 % of control | [13] 98 % of control

COc1cccc(C(N)C(=O)O)c1 (centres undefined)
inactive: [7] 94 % of control | [8] 100 % of control | [9] 105 % of control | [10] 97 % of control

CCC(=O)c1cc(O)ccc1O
inactive: [14] 93 % of control | [16] 98 % of control

CCCCC(NC(=O)CN)C(=O)O (centres undefined)
inactive: [18] 105 % of control | dose: 50.0 mg/kg/injection, schedule: Q01DX001 (ip), vehicle: Klucel (hydroxypropylcellulose) (HPC) 103 % of control | [19] 100 % of control

CCO/C(C)=C(/C(C)=O)C(=O)NC1CCCCC1
inactive: [20] 100 % of control | [4] 101 % of control | [21] 100 % of control | [5] 95 % of control | [22] 102 % of control | [6] 98 % of control

COc1ccccc1/C=C/C(=O)N1CCC2(CC1)C(=O)N(C)CN2c1ccccc1
inactive: dose: 75.0 mg/kg/injection, schedule: Q04DX003 (ip), vehicle: Klucel (hydroxypropylcellulose) (HPC) 96 % of control | dose: 150.0 mg/kg/injection, schedule: Q04DX003 (ip), vehicle: Klucel (hydroxypropylcellulose) (HPC) 86 % of control | dose: 300.0 mg/kg/injection, schedule: Q04DX003 (ip), vehicle: Klucel (hydroxypropylcellulose) (HPC) 91 % of control

O=C(Nc1ccc(C(=O)Cl)cc1)OCCCl
inactive: [4] 96 % of control | [5] 96 % of control | [6] 96 % of control

Cn1c2c(c(=O)n(C)c1=O)C(=Nc1ccccc1)C(=O)N2
inactive: [8] 101 % of control | [9] 104 % of control | [10] 96 % of control

Nc1nc(N)c2nc(CNc3ccc(C(=O)NCCCC(=O)O)cc3)cnc2n1 (tested in a mixture with another compound)
inactive: dose: 12.5 mg/kg/injection, schedule: Q01DX001 (ip), vehicle: Klucel (hydroxypropylcellulose) (HPC) 92 % of control | [18] 97 % of control | [19] 108 % of control

CN(Cc1cnc2nc(N)c(Br)c(N)c2n1)c1ccc(C(=O)NC(CCC(=O)O)C(=O)O)cc1 (centres undefined)
inactive: dose: 100.0 mg/kg/injection, schedule: Q04DX002 (ip), vehicle: sodium bicarbonate 96 % of control | dose: 200.0 mg/kg/injection, schedule: Q04DX002 (ip), vehicle: sodium bicarbonate 96 % of control

O=Cc1ccc(-c2ccc([N+](=O)[O-])cc2)o1
inactive: [23] 92 % of control | [24] 94 % of control | [25] 103 % of control

CNC(=O)c1cc(/C=C/c2c[nH]c3ccccc23)c[n+](C)c1
inactive: dose: 100.0 mg/kg/injection, schedule: Q01DX001 (ip), vehicle: other 102 % of control | dose: 200.0 mg/kg/injection, schedule: Q01DX001 (ip), vehicle: other 100 % of control | dose: 400.0 mg/kg/injection, schedule: Q01DX001 (ip), vehicle: other 94 % of control

CC(=O)Oc1cccc(/C=C/C(=O)O)c1
inactive: [20] 91 % of control | [4] 98 % of control | [21] 91 % of control | [5] 102 % of control | [22] 90 % of control | [6] 91 % of control

Cc1cc(C)c(NC(=O)c2ccccc2F)cc1C
inactive: [3] 101 % of control | [15] 100 % of control | [17] 97 % of control

CCCCC(CCCC)(C(=O)OCCOCCCl)c1cccc2ccccc12
inactive: dose: 100.0 mg/kg/injection, schedule: Q04DX002 (ip), vehicle: saline with Tween-80 101 % of control | dose: 200.0 mg/kg/injection, schedule: Q04DX002 (ip), vehicle: saline with Tween-80 95 % of control | dose: 400.0 mg/kg/injection, schedule: Q04DX002 (ip), vehicle: saline with Tween-80 99 % of control

O=c1[nH]cccc1CCc1ccccc1
inactive: [8] 103 % of control | [9] 105 % of control | [10] 111 % of control

COc1cccc(Cc2c[nH]c(=S)[nH]c2=O)c1
inactive: [3] 108 % of control | [15] 96 % of control

NC1(C(=O)O)CC2CC1C2 (centres undefined)
inactive: dose: 100.0 mg/kg/injection, schedule: Q04DX002 (ip), vehicle: other 95 % of control | dose: 200.0 mg/kg/injection, schedule: Q04DX002 (ip), vehicle: other 106 % of control | dose: 400.0 mg/kg/injection, schedule: Q04DX002 (ip), vehicle: other 92 % of control

CC(=O)Oc1c2sccc2cc2ccsc12
inactive: [23] 97 % of control | [24] 92 % of control | [25] 92 % of control
